The values below come from PMC2841397 (Xenobiotica; the fate of foreign compounds in biological …, 2010).

One may read the Cmax as the peak of the concentration-time curve. For orientation: Tmax means the time at which the peak concentration occurs. As a reminder, the clearance is the rate of elimination divided by the concentration.

A short description of series [1]: Urinary excretion after intravenous administration to rats. It counts as in vivo, rat.
The test system of series [2] is β2-AR coupled GS signaling. Particulars: ref Woo et al. 2009; cited from earlier work.
Series [3] in a line: Urinary excretion after oral administration to rats. Type of series: in vivo, rat.
Another series relates to cardiomyocytes. The settings on record: ref Beigi et al. 2006, Jóźwiak et al. 2007, cited from earlier work; for maximum contractile response: cardiomyocyte model, Woo et al. 2009.
The next series concerns isolated rat enterocytes. The settings on record: ref Koster et al. 1986, cited from earlier work.
For the next series, the system named is isolated rat hepatocytes. The settings on record: ref Koster et al. 1986, cited from earlier work.
Experiment in series [4]: not given
This is another data set of the same source.

For series [5] the following is noted: Mean (CV%).
The conditions of series [6]: rat; ref Koster et al. 1985, 1986; Hildebrandt et al. 1994; cited from earlier work.
For series [7] the following is noted: racemic-Fen 2 mg kg^-1 intravenous, male Wistar rats; ref Koster et al. 1985; cited from earlier work.
Setting [8] is: intravenous 5 mg kg^-1, n=5, mean.
The mark [9] stands for this setting: model parameter, iv 5 and oral 25 mg kg^-1.

“And” between values parts separate entries of the source, which are not always exact repeats. Equal entries are not always repeated. Where two headings read alike, the source gives them in different places.

Regarding `CC(Cc1ccc(O)cc1)NCC(O)c1cc(O)cc(O)c1` [(R,R)-Fen, (R,R)-Fenoterol], the “Dose (%) excreted into urine” value is 2.24% and 7.75% in series [1] (after intravenous (R,R)-Fen 5 mg kg^-1, 0-6 h, individual animals); 1.70 ± 1.77% in [1] (after intravenous (R,R)-Fen 5 mg kg^-1, 6-24 h); 1.43 ± 0.21% in series [1] (after intravenous (R,R)-MFen 5 mg kg^-1, 0-6 h); 0.17 ± 0.05% in series [1] (after intravenous (R,R)-MFen 5 mg kg^-1, 6-24 h); 0.17% in [3] (after oral (R,R)-Fen 25 mg kg^-1, 0-6 h, one animal); 0.16 ± 0.12% in [3] (after oral (R,R)-Fen 25 mg kg^-1, 6-24 h). In addition, the “Dose (%) excreted into urine” value in series [3] (after oral (R,R)-MFen 25 mg kg^-1, 0-6 h, individual animals) is 0.05% and 0.04%; in series [3] (after oral (R,R)-MFen 25 mg kg^-1, 6-24 h) it was 0.02 ± 0.01%. In addition, the “dose excreted in the cumulative 24-h urine collection” value was “about 7%” in [1] (after intravenous administration of (R,R)-Fen) and “less than 1%” in series [3] (after oral administration of (R,R)-Fen). Besides, the “administered dose excreted, 24-h cumulative urinary excretion” value in [1] (after intravenous administration of (R,R)-MFen) is reported as “about 2%”. In series [2], the “β2-AR coupled GS signaling” value is listed as “selectively activates”. For the same molecule, the “administered dose excreted, cumulative urine” value in series [3] (after oral administration of (R,R)-MFen) is listed as “Trace amounts”. For the same molecule, in the series on cardiomyocytes, the maximum contractile response result is reported as “significant increase”. Further, the “EC50 in the cardiomyocyte model” value in the series on cardiomyocytes is recorded as “reduced”. In addition, the Cmax runs as follows: (oral 25 mg kg^-1) 6.9 ± 0.3 nM; (oral 25 mg kg^-1, mean) 2.1 ng/mL. Moreover, the Tmax (oral 25 mg kg^-1) is 2 h and the Tmax in series [4] (intravenous 5 mg kg^-1, n=5) stood at 5.0 min. In addition, the AUC0-inf. (oral 25 mg kg^-1, mean) is 692 ng·min/mL and 691.7 ng·min/mL; the AUC0-inf. in series [4] (setting [8]) was 36200 ng·min/mL. Also, the T1/2λz (oral 25 mg kg^-1, mean) came out at 2.808 h; the T1/2λz in [4] (setting [8]) is 1.815 h; the T1/2λz in series [5] (calculated from model parameters, equations (7) and (8)) was 96.4 (12%) min. The “net exposure (AUC)” value (oral administration 25 mg kg^-1) turned out to be 2.3 nmol·min/mL. For the same molecule, the “Clint, conversion to (R,R)-Fen-PG” value was 0.00079 ± 0.0002 mL/min/kg with isolated rat enterocytes (isolated rat enterocytes) and 0.00148 ± 0.00032 mL/min/kg in the series with isolated rat hepatocytes (isolated rat hepatocytes). Further, in series [4] (setting [8]), the C0 was 2237 ng/mL. Besides, in series [4] (setting [8]), the Cl is 146 mL/min/kg and 145.7 mL/min/kg. Besides, in [4] (setting [8]), the VSS worked out at 8.2 L/kg. In addition, the “area under the curve (AUC)” value in series [4] (intravenous administration) worked out at 119 nmol·min/mL. Moreover, the CL in series [5] (calculated from model parameters, equation (5)) is 170 (8%) ml min^-1kg^-1. In addition, the Vss in series [5] (calculated from model parameters, equation (6)) is given as 11.6 (15%) l kg^-1. For the same molecule, in [5] (model parameter), the Vc was 3.94 (20%) l kg^-1. Also, the ka1 in series [5] (model parameter) is given as 0.004 (39%) min^-1. For the same molecule, in series [5] (model parameter), the ka2 was 0.167 (79%) min^-1. Besides, the k10 in series [5] (setting [9]) was 0.043 min^-1 and 0.043 (15%) min^-1. The k12 in series [5] (setting [9]) was 0.023 (26%) min^-1. Also, the k21 in series [5] (setting [9]) was 0.012 (18%) min^-1. In addition, the F in series [5] (model parameter, systemic bioavailability) is reported as 0.473 (25%).

As to `C[C@H](Cc1ccc(O[C@@H]2O[C@H](C(=O)O)[C@@H](O)[C@H](O)[C@H]2O)cc1)NC[C@H](O)c1cc(O)cc(O)c1` [(R,R)-Fen-PG], the “observed fraction of (R,R)-Fen-PG formation” value in the series with isolated rat enterocytes (enterocytes) is recorded as 0.52 ± 0.01; in the series with isolated rat hepatocytes (hepatocytes) it was 0.28 ± 0.01.

`COc1ccc(CC(C)NCC(O)c2cc(O)cc(O)c2)cc1` [(R,R)-MFen, (R,R)-methoxyfenoterol]: the maximum contractile response result in the series on cardiomyocytes is on record as “significant increase”.

On to `CC(Cc1ccc(O)cc1)NCC(O)c1cc(O)cc(O)c1` [(S,S)-Fen], for which, in the series with cardiomyocytes, the maximum contractile response entry is “no observed effect”.

Take `CC(Cc1ccc(O)cc1)NCC(O)c1cc(O)cc(O)c1` (stereo not drawn) [Fen, 5-[1-hydroxy-2-[[2-(4-hydroxyphenyl)-1-methylethyl]-amino]-ethyl]-1,3-benzenediol]: the “bioavailability after oral administration” value in series [6] was “less than 1%”. In series [7], the Vss is 1.3 L/kg, the clearance was 72.8 mL/min/kg and the k10 was 0.197 min⁻¹.
